From US20240376126A1, “PRMT5 INHIBITOR AND THE USE THEREOF” (CYTOSINLAB THERAPEUTICS CO., LTD., priority 2022, published 2024)

Columns and labels:
HCT116 MTAP WT cells = test: Proliferation inhibition of HCT116 cells in vitro (CellTiter Glo, 6 days); assay type: cell-based; settings: Homo sapiens, HCT-116, 144 h, read-out: Cell proliferation inhibition rate HCT116 MTAP WT IC50 (nm)
[1] = tested on: HCT116-MTAP-KO (MTAP null) cells; test: Proliferation inhibition of HCT116 MTAP-KO cells in vitro (CellTiter Glo, 6 days); assay type: cell-based; settings: HCT116-MTAP null, 144 h, read-out: Cell proliferation inhibition rate HCT116-MTAP null IC50 (nm)

Row | Structure (SMILES) | IC50 (HCT116 MTAP WT cells) [nM] | IC50 [1] [nM]
1 | Cc1ncc2c(N)nc3cc(F)c(C(=O)N(Cc4cn5cc(C(F)(F)C(F)(F)F)ccc5n4)CC(C)C)cc3n12 [Example 182] | 100 to 1000 | < 100
2 | Cc1ncc2c(N)nc3cc(F)c(C(=O)N(Cc4cn5cc(C(F)(F)F)ccc5n4)c4cnn(C)c4)cc3n12 [Example 183] | 1000 to 10000 | < 100
3 | CCN(Cc1cn2ccccc2n1)C(=O)c1cc2c(cc1F)nc(N)c1cnc(C)n12 [Example 184] | 1000 to 10000 | 100 to 1000
4 | COC1CCCC1N(Cc1cn2ccccc2n1)C(=O)c1cc2c(cc1F)nc(N)c1cnc(C)n12 (centres unmarked) [Example 185] | 1000 to 10000 | < 100
5 | Cc1cn2c(n1)c(N)nc1cc(F)c(C(=O)N(Cc3nc4ccccn4c3F)CC(C)C)cc12 [Example 188] | 1000 to 10000 | < 100
6 | Cc1ncc2c(N)nc3cc(F)c(C(=O)N(Cc4cn5ccccc5n4)C4CCCC4O)cc3n12 (centres unmarked) [Example 190] | 1000 to 10000 | 100 to 1000
7 | CCN(Cc1cn2ccccc2n1)C(=O)c1cc2c(cc1Cl)nc(N)c1cnc(C)n12 [Example 192] | 1000 to 10000 | 100 to 1000
8 | Cc1ncc2c(N)nc3cc(F)c(C(=O)N(Cc4nc5ccccn5c4F)CC(C)C)cc3n12 [Example 194] | 1000 to 10000 | < 100
9 | Cc1ncc2c(N)nc3cc(F)c(C(=O)N(Cc4cn5cccc(C(F)(F)F)c5n4)c4cnn(C)c4)cc3n12 [Example 195] | 1000 to 10000 | 100 to 1000
10 | Cc1ncc2c(N)nc3cc(F)c(C(=O)N(Cc4cn5ccccc5n4)c4cccnc4)cc3n12 [Example 199] | 1000 to 10000 | 100 to 1000
11 | Cc1ncc2c(N)nc3cc(F)c(C(=O)N4C(c5cc6ccccn6n5)COC[C@H]4C)cc3n12 (some centres unmarked) [Example 203] | 1000 to 10000 | < 100
12 | Cc1ncn2c1c(N)nc1cc(F)c(C(=O)N(Cc3nc4ccccn4c3F)c3cnn(C)c3)cc12 [Example 205] | 1000 to 10000 | < 100
13 | CCN(Cc1cn2cc(C(F)(F)F)ncc2n1)C(=O)c1cc2c(cc1F)nc(N)c1c(C)ncn12 [Example 207] | 1000 to 10000 | < 100
14 | CCN(Cc1nc2ccccn2c1F)C(=O)c1cc2c(cc1F)nc(N)c1c(C)ncn12 [Example 209] | 1000 to 10000 | < 100
15 | Cc1ncc2c(N)nc3cc(Cl)c(C(=O)N(Cc4cn5cc(C(F)(F)F)ccc5n4)c4cnn(C)c4)cc3n12 [Example 210] | 1000 to 10000 | 100 to 1000
16 | Cc1ncc2c(N)nc3cc(F)c(C(=O)N(Cc4cc5c(cn4)COC5)c4cnn(C)c4)cc3n12 [Example 211] | 1000 to 10000 | 100 to 1000
17 | CCN(Cc1cn2nc(C(F)(F)F)ccc2n1)C(=O)c1cc2c(cc1F)nc(N)c1c(C)ncn12 [Example 213] | 1000 to 10000 | 100 to 1000
18 | CCN(Cc1cc2c(cn1)OCC2)C(=O)c1cc2c(cc1F)nc(N)c1cnc(C)n12 [Example 214] | 1000 to 10000 | 100 to 1000
19 | CCN(C(=O)c1cc2c(cc1F)nc(N)c1c(C)ncn12)C1COc2cc(C(F)(F)F)ccc21 (centres unmarked) [Example 215] | 1000 to 10000 | < 100
20 | CCN(Cc1ccc2c(c1)CCO2)C(=O)c1cc2c(cc1F)nc(N)c1cnc(C)n12 [Example 216] | 1000 to 10000 | 100 to 1000
21 | CCN(Cc1cn2cc(CCN3CCOCC3)ccc2n1)C(=O)c1cc2c(cc1F)nc(N)c1cnc(C)n12 [Example 217] | 1000 to 10000 | 100 to 1000
22 | CCN(Cc1cc2ccc(C(F)(F)F)cn2n1)C(=O)c1cc2c(cc1F)nc(N)c1c(C)ncn12 [Example 218] | 1000 to 10000 | < 100

Row | Structure (SMILES) | IC50 (HCT116 MTAP WT cells) [nM] | IC50 [1] [nM]
23 | Cc1ncc2c(N)nc3cc(F)c(C(=O)N(Cc4ccc5c(c4)CCO5)c4cnn(C)c4)cc3n12 [Example 219] | 1000 to 10000 | 100 to 1000
24 | Cc1ncn2c1c(N)nc1cc(F)c(C(=O)N(c3cnn(C)c3)C3COc4ccccc43)cc12 (centres unmarked) [Example 221] | 1000 to 10000 | < 100
25 | CCN(C(=O)c1cc2c(cc1F)nc(N)c1cnc(C)n12)C1COc2cc(C(F)(F)F)ccc21 (centres unmarked) [Example 222] | 1000 to 10000 | < 100
26 | CCN(C(=O)c1cc2c(cc1F)nc(N)c1c(C)ncn12)C1COc2cc(-c3cccnc3)ccc21 (centres unmarked) [Example 223] | 1000 to 10000 | 100 to 1000
27 | CCN(C(=O)c1cc2c(cc1F)nc(N)c1c(C)ncn12)C1COc2ccccc21 (centres unmarked) [Example 224] | 1000 to 10000 | 100 to 1000
28 | Cc1ncc2c(N)nc3cc(F)c(C(=O)N(c4cnn(C)c4)C4COc5ccccc54)cc3n12 (centres unmarked) [Example 225] | 1000 to 10000 | < 100
29 | Cc1ncn2c1c(N)nc1cc(F)c(C(=O)N(C)C3COc4cc(-c5cnn(C)c5)ccc43)cc12 (centres unmarked) [Example 226] | 1000 to 10000 | 100 to 1000
30 | Cc1nn(C)cc1N(Cc1cc2ccccn2n1)C(=O)c1cc2c(cc1F)nc(N)c1cnc(C)n12 [Example 227] | 1000 to 10000 | < 100
31 | CCN(C(=O)c1cc2c(cc1F)nc(N)c1c(C)ncn12)C1COc2cc(Br)cnc21 (centres unmarked) [Example 228] | 1000 to 10000 | 100 to 1000
32 | COc1ccc(N(Cc2cn3ccccc3n2)C(=O)c2cc3c(cc2F)nc(N)c2cnc(C)n23)cn1 [Example 229] | 1000 to 10000 | < 100
33 | Cc1ncc2c(N)nc3cc(F)c(C(=O)N(Cc4cn5cc(C(F)(F)F)ccc5n4)C4CCOC4)cc3n12 (centres unmarked) [Example 230] | 1000 to 10000 | 100 to 1000
34 | Cc1nn(C)cc1N(Cc1cn2ncccc2n1)C(=O)c1cc2c(cc1F)nc(N)c1cnc(C)n12 [Example 231] | 1000 to 10000 | 100 to 1000
35 | Cc1ncc2c(N)nc3cc(F)c(C(=O)N(Cc4cc5ccccn5n4)C4CCOC4)cc3n12 (centres unmarked) [Example 232] | 1000 to 10000 | 100 to 1000
36 | Cc1nn(C)cc1N(Cc1cn2cc(C(F)(F)F)ccc2n1)C(=O)c1cc2c(cc1F)nc(N)c1c(C)ncn12 [Example 233] | 1000 to 10000 | < 100
37 | Cc1nn(C)cc1N(Cc1cn2cc(C(F)(F)F)ccc2n1)C(=O)c1cc2c(cc1F)nc(N)c1cnc(C)n12 [Example 234] | 1000 to 10000 | < 100
38 | Cc1nn(C)cc1N(Cc1cc2ccc(C(F)(F)F)cn2n1)C(=O)c1cc2c(cc1F)nc(N)c1c(C)ncn12 [Example 235] | < 100 | < 100
39 | Cc1nn(C)cc1N(Cc1cc2ccc(C(F)(F)F)cn2n1)C(=O)c1cc2c(cc1F)nc(N)c1cnc(C)n12 [Example 236] | 1000 to 10000 | < 100
40 | Cc1nn(C)cc1N(Cc1nc2ccccc2[nH]1)C(=O)c1cc2c(cc1F)nc(N)c1c(C)ncn12 [Example 237] | 1000 to 10000 | 100 to 1000
41 | Cc1ncc2c(N)nc3cc(F)c(C(=O)N(Cc4cn5cc(C(F)(F)F)ccc5n4)c4ccnn4C)cc3n12 [Example 239] | 1000 to 10000 | < 100
42 | Cc1ncc2c(N)nc3cc(F)c(C(=O)N(Cc4cn5cc(C(F)(F)F)ccc5n4)c4c(F)cnn4C)cc3n12 [Example 241, 4-amino-7-fluoro-N-(4-fluoro-2-methyl-pyrazol-3-yl)-1-methyl-N-[[6-(trifluoromethyl)imidazolo [1,2-a]pyridin-2-yl]methyl] imidazolo [1,5-a] quinoxalin-8-carboxamide] | 100 to 1000 | < 100
43 | CCn1nccc1N(Cc1cn2cc(C(F)(F)F)ccc2n1)C(=O)c1cc2c(cc1F)nc(N)c1cnc(C)n12 [Example 242] | 100 to 1000 | < 100
